# Reference: paper PMC11237924, “A neutral invertase controls cell division besides hydrolysis of sucrose for nutrition during germination and seed setting in rice” (iScience, 2024)
# T1: OsNIN8 (MBP-OsNIN8), neutral invertase 8 (Oryza sativa, UniProt Q69T31, D275A/E501A)
# T1 construct: gene CINV1; N-terminal MBP fusion (pETMALc-H), tag kept, expressed in E. coli BL21(DE3), amylose resin purified
# T1 sequence (Q69T31 1-562 D275A/E501A): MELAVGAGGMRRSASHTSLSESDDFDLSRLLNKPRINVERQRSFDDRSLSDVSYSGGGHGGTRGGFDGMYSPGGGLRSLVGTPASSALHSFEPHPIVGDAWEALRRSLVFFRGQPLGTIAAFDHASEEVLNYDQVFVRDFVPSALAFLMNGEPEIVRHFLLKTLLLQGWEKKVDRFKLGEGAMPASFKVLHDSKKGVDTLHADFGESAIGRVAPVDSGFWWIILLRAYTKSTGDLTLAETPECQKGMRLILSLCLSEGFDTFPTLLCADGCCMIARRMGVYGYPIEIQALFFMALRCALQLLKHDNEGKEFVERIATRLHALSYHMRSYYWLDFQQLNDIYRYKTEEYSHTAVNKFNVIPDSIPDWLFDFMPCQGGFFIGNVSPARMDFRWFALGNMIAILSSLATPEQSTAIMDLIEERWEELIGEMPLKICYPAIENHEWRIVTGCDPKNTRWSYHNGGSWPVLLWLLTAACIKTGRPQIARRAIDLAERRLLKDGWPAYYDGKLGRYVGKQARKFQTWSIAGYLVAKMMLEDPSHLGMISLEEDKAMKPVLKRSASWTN
# T2: OsNIN8 (MBP-OsNIN8), neutral invertase 8 (Oryza sativa, UniProt Q69T31, E501A)
# T2 construct: gene CINV1; N-terminal MBP fusion (pETMALc-H), tag kept, expressed in E. coli BL21(DE3), amylose resin purified
# T2 sequence (Q69T31 1-562 E501A): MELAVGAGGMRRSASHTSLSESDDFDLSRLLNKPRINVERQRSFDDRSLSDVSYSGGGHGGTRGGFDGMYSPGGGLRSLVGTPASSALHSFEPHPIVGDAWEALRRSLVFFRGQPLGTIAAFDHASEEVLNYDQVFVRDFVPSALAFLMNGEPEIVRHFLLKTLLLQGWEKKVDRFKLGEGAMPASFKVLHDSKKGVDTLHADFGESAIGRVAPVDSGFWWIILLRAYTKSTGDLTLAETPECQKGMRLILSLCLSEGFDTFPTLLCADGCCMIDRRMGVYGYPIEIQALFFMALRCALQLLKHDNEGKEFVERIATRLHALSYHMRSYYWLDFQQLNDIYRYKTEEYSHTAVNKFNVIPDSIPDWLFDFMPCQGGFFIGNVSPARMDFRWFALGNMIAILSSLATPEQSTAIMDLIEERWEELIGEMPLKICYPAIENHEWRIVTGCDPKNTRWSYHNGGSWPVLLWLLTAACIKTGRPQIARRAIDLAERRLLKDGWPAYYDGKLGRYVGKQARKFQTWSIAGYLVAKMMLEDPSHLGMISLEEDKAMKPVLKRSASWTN
# T3: OsNIN8 (MBP-OsNIN8), neutral invertase 8 (Oryza sativa, UniProt Q69T31, D275A)
# T3 construct: gene CINV1; N-terminal MBP fusion (pETMALc-H), tag kept, expressed in E. coli BL21(DE3), amylose resin purified
# T3 sequence (Q69T31 1-562 D275A): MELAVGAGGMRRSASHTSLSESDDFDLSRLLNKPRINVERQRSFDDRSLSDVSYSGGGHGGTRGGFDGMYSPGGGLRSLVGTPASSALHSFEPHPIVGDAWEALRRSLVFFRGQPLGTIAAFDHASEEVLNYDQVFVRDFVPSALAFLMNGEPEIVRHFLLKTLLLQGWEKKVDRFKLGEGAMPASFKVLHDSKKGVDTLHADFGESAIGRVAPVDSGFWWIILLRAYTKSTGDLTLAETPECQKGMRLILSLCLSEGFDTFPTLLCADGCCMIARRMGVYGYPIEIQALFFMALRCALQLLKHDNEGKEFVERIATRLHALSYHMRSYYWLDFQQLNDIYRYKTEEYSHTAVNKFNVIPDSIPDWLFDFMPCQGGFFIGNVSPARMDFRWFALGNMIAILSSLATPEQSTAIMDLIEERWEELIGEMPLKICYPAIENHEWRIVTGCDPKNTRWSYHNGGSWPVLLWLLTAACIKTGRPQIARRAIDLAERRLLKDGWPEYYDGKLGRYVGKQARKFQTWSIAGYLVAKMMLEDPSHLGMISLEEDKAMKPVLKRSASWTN
# T4: OsNIN8 (MBP-OsNIN8), neutral invertase 8 (Oryza sativa, UniProt Q69T31, G461R)
# T4 construct: gene CINV1; N-terminal MBP fusion (pETMALc-H), tag kept, expressed in E. coli BL21(DE3), amylose resin purified
# T4 sequence (Q69T31 1-562 G461R): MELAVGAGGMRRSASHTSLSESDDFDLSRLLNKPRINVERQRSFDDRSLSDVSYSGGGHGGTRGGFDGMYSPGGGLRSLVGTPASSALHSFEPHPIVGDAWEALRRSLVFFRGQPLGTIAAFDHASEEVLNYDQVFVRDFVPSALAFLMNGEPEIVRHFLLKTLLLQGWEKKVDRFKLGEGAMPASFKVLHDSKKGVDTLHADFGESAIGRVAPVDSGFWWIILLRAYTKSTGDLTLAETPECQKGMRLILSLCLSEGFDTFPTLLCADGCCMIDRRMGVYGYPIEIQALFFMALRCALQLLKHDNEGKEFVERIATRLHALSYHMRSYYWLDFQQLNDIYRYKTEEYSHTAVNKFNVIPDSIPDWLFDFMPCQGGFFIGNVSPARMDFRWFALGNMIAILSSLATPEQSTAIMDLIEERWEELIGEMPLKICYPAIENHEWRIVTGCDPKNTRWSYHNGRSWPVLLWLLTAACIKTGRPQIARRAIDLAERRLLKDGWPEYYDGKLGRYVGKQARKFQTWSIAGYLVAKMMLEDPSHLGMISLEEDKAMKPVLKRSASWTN
# Legend:
# [1] = molecular target: T1, OsNIN8 (MBP-OsNIN8), neutral invertase 8; assay: ITC incremental titration; type: binding; settings: 25 °C, 0.1 mM protein, 10 mM sucrose in syringe; catalytic-residue mutant
# [2] = molecular target: T2, OsNIN8 (MBP-OsNIN8), neutral invertase 8; assay: ITC incremental titration; type: binding; settings: 25 °C, 0.1 mM protein, 10 mM sucrose in syringe; catalytic-residue mutant
# [3] = molecular target: T3, OsNIN8 (MBP-OsNIN8), neutral invertase 8; assay: ITC incremental titration; type: binding; settings: 25 °C, 0.1 mM protein, 10 mM sucrose in syringe; catalytic-residue mutant
# [4] = molecular target: T4, OsNIN8 (MBP-OsNIN8), neutral invertase 8; assay: pulldown on amylose magnetic beads with GC-TOF MS; ITC titration; type: binding; settings: 50 mM potassium phosphate pH 6.4, 25 °C; OsNIN8m, retains residual sucrose hydrolysis
# purified protein = substrate: OC[C@H]1O[C@@](CO)(O[C@H]2O[C@H](CO)[C@@H](O)[C@H](O)[C@H]2O)[C@@H](O)[C@@H]1O; assay: purified protein; type: biochemical, Oryza sativa; settings: 50 mM potassium phosphate pH 6.4, fit over 0-20 mM sucrose (substrate inhibition above 20 mM)
Molecule,ITC incremental titration [1],ITC incremental titration [2],ITC incremental titration [3],pulldown on amylose magnetic beads with GC-TOF MS; ITC titration [4],Km (purified protein) [µM]
OC[C@H]1O[C@@](CO)(O[C@H]2O[C@H](CO)[C@@H](O)[C@H](O)[C@H]2O)[C@@H](O)[C@@H]1O [Sucrose],"all had not hydrolytic activity on sucrose, showed their bindings to sucrose were exotherm","all had not hydrolytic activity on sucrose, showed their bindings to sucrose were exotherm","all had not hydrolytic activity on sucrose, showed their bindings to sucrose were exotherm",OsNIN8m bound more sucrose than OsNIN8 did,–
"OsNIN8 (MBP-OsNIN8), neutral invertase 8 (Oryza sativa Japonica Group) (protein, N-terminal MBP fusion (pETMALc-H), tag kept, expressed in E. coli BL21(DE3), amylose resin purified) MELAVGAGGMRRSASHTSLSESDDFDLSRLLNKPRINVERQRSFDDRSLSDVSYSGGGHGGTRGGFDGMYSPGGGLRSLVGTPASSALHSFEPHPIVGDAWEALRRSLVFFRGQPLGTIAAFDHASEEVLNYDQVFVRDFVPSALAFLMNGEPEIVRHFLLKTLLLQGWEKKVDRFKLGEGAMPASFKVLHDSKKGVDTLHADFGESAIGRVAPVDSGFWWIILLRAYTKSTGDLTLAETPECQKGMRLILSLCLSEGFDTFPTLLCADGCCMIDRRMGVYGYPIEIQALFFMALRCALQLLKHDNEGKEFVERIATRLHALSYHMRSYYWLDFQQLNDIYRYKTEEYSHTAVNKFNVIPDSIPDWLFDFMPCQGGFFIGNVSPARMDFRWFALGNMIAILSSLATPEQSTAIMDLIEERWEELIGEMPLKICYPAIENHEWRIVTGCDPKNTRWSYHNGGSWPVLLWLLTAACIKTGRPQIARRAIDLAERRLLKDGWPEYYDGKLGRYVGKQARKFQTWSIAGYLVAKMMLEDPSHLGMISLEEDKAMKPVLKRSASWTN",–,–,–,–,2718 ± 347
